This is an account of results in patent US20200031778A1, “NOVEL 5-SUBSTITUTED IMIDAZOLYLMETHYL DERIVATIVES” (Bayer CropScience Aktiengesellschaft, priority 2016, published 2020).

A short description of this data set: Log P by HPLC on reversed phase columns (EEC directive 79/831 Annex V.A8; methods [a], [b], [c]). It counts as physicochemical. How it is done: Measurement of Log P values was performed according to EEC directive 79/831 Annex V.A8 by HPLC (High Performance Liquid Chromatography) on reversed phase columns with the following methods: • ^[a] Log P value is determined by measurement of LC-UV, in an acidic range, with 0.1% formic acid in water and acetonitrile as eluent (linear gradient from 10% acetonitrile to 95% acetonitrile). • ^[b] Log P value is determined by measurement of LC-UV, in a neutral range, with 0.001 molar ammonium acetate solution in water and acetonitrile as eluent (linear gradient from 10% acetonitrile to 95% acetonitrile). • ^[c] Log P value is determined by measurement of LC-UV, in an acidic range, with 0.1% phosphoric acid and acetonitrile as eluent (linear gradient from 10% acetonitrile to 95% acetonitrile).
If more than one Log P value is available within the same method, all the values are given and separated by “+”.
Calibration was done with straight-chain alkan2-ones (with 3 to 16 carbon atoms) with known Log P values (measurement of Log P values using retention times with linear interpolation between successive alkanones). Lambda-max-values were determined using UV-spectra from 200 nm to 400 nm and the peak values of the chromatographic signals.

Each structure is given as a SMILES string.

`COC(Cn1cncc1C#N)c1ccc(Oc2ccc(C(F)(F)F)cc2)cc1C(F)(F)F` (stereo not shown) [I-67]: the LogP is 4.27^[a].
In the case of `N#Cc1cncn1CC(O)(c1cc(F)c(Cl)cc1Cl)C1(F)CC1` (stereo not shown) [I-578], the LogP was 2.59^[a].
The result for `CCCC(O)(Cn1cncc1C#N)c1ccc(Cl)cc1` (stereo not shown) [I-289] reads 2.39^[a].
Regarding `C[Si](C)(C)C#CC(O)(Cn1cncc1C(F)(F)F)C1(Cl)CC1` (stereo not shown) [I-607], the LogP was 3.52^[a].
Then `N#Cc1cncn1CC(O)(c1ccc(F)c(F)c1Cl)C1(Cl)CC1` (stereo not shown) [I-628], with 2.41^[a]; and `N#Cc1cncn1CC(O)(c1ccc(C#CC2CC2)cc1F)C1(F)CC1` (stereo not shown) [I-643], with 2.92^[a].
For the compound `N#Cc1cncn1CC(O)(c1ccc(Cl)c(F)c1F)C1(Cl)CC1` (stereo not shown) [I-629], the LogP was 2.60^[a].
The result for `Cc1ccc(Oc2ccc(C(O)Cn3cncc3Cl)c(Cl)c2)cc1` (stereo not shown) [I-02] reads 2.50^[a]; that for `N#Cc1cncn1CC(O)(c1cc(F)c(F)c(F)c1)C1(F)CC1` (stereo not shown) [I-500], 2.34^[a].
Then `N#Cc1cncn1CC(O)(c1ccc(F)c(F)c1Cl)C1(F)CC1` (stereo not shown) [I-636], with 2.25^[a]; and `N#Cc1cncn1CC(O)(c1c(F)cccc1Cl)C1(F)CC1` (stereo not shown) [I-434], with 2.08^[a].
Then `N#Cc1cncn1CC(O)(c1ccc(F)cc1Cl)C1(F)CC1` (stereo not shown) [I-349], with 2.22^[a].
For `N#Cc1cncn1CC(O)c1ccccc1C(F)(F)F` (stereo not shown) [I-150], the LogP was 1.81^[a].
The result for `CC(C)C(O)(Cn1cncc1C#N)c1ccc(Br)cc1Cl` (stereo not shown) [I-422] reads 3.02^[a].
The result for `N#Cc1cncn1CC(O)(c1cc(Cl)c(Cl)cc1F)C1(F)CC1` (stereo not shown) [I-589] reads 2.68^[a]; that for `N#Cc1cncn1CC(O)(c1ccc(F)cc1Br)C1(F)CC1` (stereo not shown) [I-357], 2.31^[a]; that for `OC(Cn1cncc1Cl)c1ccc(Oc2ccc(Br)cn2)cc1Cl` (stereo not shown) [I-79], 2.10^[a].
Then `N#Cc1cncn1CC(O)(c1cc(Cl)c(F)cc1Cl)C1(Cl)CC1` (stereo not shown) [I-581], with 2.70^[a]; and `N#Cc1cncn1CC(O)(c1cc(Cl)cc(Cl)c1)C1(F)CC1` (stereo not shown) [I-472], with 2.67^[a]; and `O=C(Cn1cncc1F)c1ccc(Oc2ccc(C(F)(F)F)nc2)nc1C(F)(F)F` [IX-130], with 2.16^[a].
For the compound `Cc1ccc(C)c(C#CC(O)(Cn2cncc2C#N)C2(Cl)CC2)c1` (stereo not shown) [I-298], the LogP was 3.09^[a].
Then `N#Cc1cncn1CC(O)(c1cc(F)ccc1F)C1(F)CC1` (stereo not shown) [I-523], with 2.02^[a].
For `N#Cc1cncn1CC(O)(c1cc(Cl)c(Cl)c(Cl)c1)C1(F)CC1` (stereo not shown) [I-534], the LogP was 3.03^[a].
As for `OC(Cn1cncc1Cl)c1ccc(Oc2ccc(Cl)cc2)cc1C(F)F` (stereo not shown) [I-71], the LogP is 2.45^[a].
The result for `CC(C)(C)CC(O)(Cn1cncc1C#N)c1ccc(C(F)(F)F)cc1Cl` (stereo not shown) [I-268] reads 3.85^[a]; that for `Cn1ccc2cc(C(O)(Cn3cncc3C#N)CC(C)(C)C)ccc21` (stereo not shown) [I-377], 2.94^[a]; that for `N#Cc1cncn1CC(O)(c1ccc(Br)cc1Cl)C1CC1` (stereo not shown) [I-420], 2.88^[a].
The result for `CCC(O)(Cn1cncc1C#N)c1ccc(Cl)cc1Cl` (stereo not shown) [I-301] reads 2.66^[a]; that for `N#Cc1cncn1CC(O)(c1cc(F)c(F)c(Br)c1)C1(F)CC1` (stereo not shown) [I-471], 2.58^[a]; that for `CC(O)(Cn1cncc1C#N)c1cnc(Oc2ccc(C(F)F)cc2)cc1C(F)(F)F` (stereo not shown) [I-234], 2.94^[a].
The result for `CC(C)C(O)(Cn1cncc1C#N)c1ccc(Cl)cc1Cl` (stereo not shown) [I-300] reads 2.92^[a].
For the compound `COC(Cn1cncc1Cl)c1ccc(Oc2ccc(Cl)cc2)cc1C(F)F` (stereo not shown) [I-75], the LogP is 3.15^[a].
Take `CCC(C)C(O)(Cn1cncc1C#N)c1ccc(Cl)cc1Cl` (stereo not shown) [I-314]: the LogP is 3.29^[a].
With `CC(O)(Cn1cncc1C#N)c1ccc(Oc2ccc(Br)nc2)nc1C(F)(F)F` (stereo not shown) [I-364], the LogP was 2.44^[a].
